# Measurements published in US8691865B2 (AbbVie Inc., priority 2008, dated 2014).
# Target: human Cav2.2 (Homo sapiens, UniProt Q00975)
# Experiment: Assessment of calcium channel activity using FLIPR (Ca2+ influx in IMR32 cells)
# Format: cell-based
# Settings: not given
# How it was run: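 Human neuroblastoma IMR32 cells were seeded at 1−1.2×10^5 cells/well and cultured 48 h at 37 °C before FLIPR calcium influx measurement. Percent inhibition at each concentration was calculated against the no-inhibitor signal, and IC50 came from sigmoidal dose-response fits.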
# human Cav2.2, sequence (Q00975 whole entry): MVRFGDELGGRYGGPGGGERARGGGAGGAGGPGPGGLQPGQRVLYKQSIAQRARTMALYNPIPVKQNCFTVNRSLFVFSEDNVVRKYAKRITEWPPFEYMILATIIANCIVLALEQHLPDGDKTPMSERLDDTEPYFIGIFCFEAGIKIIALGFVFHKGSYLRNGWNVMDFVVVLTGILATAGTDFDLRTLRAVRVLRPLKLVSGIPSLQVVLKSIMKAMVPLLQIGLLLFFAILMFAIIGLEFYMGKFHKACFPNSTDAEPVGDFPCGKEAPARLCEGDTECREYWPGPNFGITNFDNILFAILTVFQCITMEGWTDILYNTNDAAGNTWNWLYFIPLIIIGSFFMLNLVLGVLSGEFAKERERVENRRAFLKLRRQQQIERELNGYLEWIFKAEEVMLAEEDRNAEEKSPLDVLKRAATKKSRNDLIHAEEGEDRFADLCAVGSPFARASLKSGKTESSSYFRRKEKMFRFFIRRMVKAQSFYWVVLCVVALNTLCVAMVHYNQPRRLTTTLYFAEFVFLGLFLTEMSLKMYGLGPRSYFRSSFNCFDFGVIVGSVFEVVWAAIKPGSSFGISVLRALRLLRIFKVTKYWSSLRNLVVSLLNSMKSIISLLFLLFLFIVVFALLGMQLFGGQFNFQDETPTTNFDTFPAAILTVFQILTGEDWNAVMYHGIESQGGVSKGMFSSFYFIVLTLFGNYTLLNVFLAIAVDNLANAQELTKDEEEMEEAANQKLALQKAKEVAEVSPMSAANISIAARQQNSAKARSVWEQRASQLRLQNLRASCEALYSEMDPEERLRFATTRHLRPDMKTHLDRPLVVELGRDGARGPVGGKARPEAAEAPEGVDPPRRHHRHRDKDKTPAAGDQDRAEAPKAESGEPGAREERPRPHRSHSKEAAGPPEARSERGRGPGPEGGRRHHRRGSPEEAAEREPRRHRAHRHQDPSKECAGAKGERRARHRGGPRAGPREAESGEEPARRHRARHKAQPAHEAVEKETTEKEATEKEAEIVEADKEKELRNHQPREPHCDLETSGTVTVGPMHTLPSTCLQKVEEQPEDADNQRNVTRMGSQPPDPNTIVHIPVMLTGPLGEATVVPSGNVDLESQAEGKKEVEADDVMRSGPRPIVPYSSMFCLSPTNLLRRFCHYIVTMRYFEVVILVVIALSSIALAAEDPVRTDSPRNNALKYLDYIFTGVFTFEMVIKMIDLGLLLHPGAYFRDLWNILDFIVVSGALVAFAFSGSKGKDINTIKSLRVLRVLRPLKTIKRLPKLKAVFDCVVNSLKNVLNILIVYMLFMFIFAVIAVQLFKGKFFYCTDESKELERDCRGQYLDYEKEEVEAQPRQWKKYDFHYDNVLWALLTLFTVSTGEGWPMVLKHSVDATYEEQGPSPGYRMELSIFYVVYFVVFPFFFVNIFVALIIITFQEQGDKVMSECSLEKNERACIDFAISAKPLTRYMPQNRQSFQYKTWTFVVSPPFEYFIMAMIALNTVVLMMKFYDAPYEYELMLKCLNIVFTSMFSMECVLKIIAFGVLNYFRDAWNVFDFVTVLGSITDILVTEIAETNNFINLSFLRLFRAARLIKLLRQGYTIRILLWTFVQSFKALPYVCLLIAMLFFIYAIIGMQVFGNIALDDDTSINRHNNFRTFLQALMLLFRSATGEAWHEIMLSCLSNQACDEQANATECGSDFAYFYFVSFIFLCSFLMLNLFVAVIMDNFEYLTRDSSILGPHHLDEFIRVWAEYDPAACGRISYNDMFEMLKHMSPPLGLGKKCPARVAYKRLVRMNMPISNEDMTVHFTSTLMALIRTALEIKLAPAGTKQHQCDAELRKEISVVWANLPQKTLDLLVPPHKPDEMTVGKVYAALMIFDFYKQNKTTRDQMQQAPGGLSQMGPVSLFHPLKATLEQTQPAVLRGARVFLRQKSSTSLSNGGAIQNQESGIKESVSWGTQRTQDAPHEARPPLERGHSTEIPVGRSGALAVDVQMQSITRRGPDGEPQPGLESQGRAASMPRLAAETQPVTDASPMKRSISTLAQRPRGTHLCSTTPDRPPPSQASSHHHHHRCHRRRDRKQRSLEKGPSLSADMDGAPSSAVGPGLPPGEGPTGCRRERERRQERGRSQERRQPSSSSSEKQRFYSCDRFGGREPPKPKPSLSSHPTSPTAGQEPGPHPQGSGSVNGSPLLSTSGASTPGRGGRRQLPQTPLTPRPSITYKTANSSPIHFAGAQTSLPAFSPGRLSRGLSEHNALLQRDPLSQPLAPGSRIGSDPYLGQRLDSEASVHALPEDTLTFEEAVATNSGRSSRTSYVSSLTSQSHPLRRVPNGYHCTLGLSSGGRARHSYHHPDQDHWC
# human Cav2.2, sequence (P54289 25-956 partner limits assumed): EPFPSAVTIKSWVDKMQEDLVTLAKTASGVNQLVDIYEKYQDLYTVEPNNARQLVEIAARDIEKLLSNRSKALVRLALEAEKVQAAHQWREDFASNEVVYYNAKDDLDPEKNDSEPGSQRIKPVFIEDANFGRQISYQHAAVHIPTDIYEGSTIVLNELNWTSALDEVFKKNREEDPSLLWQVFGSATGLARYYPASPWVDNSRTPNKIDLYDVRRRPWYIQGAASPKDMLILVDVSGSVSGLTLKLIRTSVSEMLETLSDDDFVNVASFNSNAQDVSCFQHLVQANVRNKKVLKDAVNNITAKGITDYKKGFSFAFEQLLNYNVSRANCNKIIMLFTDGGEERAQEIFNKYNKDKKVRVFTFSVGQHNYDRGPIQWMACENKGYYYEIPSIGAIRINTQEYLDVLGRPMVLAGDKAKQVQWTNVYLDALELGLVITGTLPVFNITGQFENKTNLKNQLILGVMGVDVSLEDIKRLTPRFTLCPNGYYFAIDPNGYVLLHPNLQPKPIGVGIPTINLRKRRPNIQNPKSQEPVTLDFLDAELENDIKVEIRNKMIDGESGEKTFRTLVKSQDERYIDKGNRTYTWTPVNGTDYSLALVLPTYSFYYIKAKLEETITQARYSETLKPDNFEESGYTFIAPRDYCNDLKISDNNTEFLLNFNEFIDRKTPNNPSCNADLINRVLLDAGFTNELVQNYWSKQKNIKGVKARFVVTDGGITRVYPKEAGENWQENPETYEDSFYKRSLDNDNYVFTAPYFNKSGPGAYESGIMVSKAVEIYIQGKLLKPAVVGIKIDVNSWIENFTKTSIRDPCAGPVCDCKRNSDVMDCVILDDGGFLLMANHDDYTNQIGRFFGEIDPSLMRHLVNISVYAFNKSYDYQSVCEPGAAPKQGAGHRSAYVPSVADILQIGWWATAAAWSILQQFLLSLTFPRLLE
# human Cav2.2, sequence (P54289 957-1103 partner limits assumed): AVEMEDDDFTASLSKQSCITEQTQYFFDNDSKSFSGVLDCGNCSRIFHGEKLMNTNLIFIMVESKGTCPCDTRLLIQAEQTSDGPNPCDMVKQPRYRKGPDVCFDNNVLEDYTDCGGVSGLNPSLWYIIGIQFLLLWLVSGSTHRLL
# human Cav2.2, sequence (P54284 whole entry partner): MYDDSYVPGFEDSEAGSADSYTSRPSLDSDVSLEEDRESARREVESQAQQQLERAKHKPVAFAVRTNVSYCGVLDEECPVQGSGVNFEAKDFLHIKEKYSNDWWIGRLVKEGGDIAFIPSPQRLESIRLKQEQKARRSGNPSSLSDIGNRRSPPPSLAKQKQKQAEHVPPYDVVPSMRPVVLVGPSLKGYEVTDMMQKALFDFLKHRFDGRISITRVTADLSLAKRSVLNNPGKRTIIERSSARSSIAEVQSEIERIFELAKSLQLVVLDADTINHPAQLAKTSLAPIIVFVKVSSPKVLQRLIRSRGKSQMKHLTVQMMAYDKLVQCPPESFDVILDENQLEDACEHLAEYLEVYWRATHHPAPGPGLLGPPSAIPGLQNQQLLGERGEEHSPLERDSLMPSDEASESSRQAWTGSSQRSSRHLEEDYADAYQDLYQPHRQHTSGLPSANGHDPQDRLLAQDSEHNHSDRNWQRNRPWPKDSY
row,Structure (SMILES),IC50 [µM]
1,"COc1ccc(-c2n[nH]cc2CN[C@H]2CC[C@@H]3CN(c4cccc(C(F)(F)F)n4)C[C@@H]32)cc1 [Example 681, (3aR,4S,6aS)-N-{[3-(4-methoxyphenyl)-1H-pyrazol-4-yl]methyl}-2-[6-(trifluoromethyl)pyridin-2-yl]octahydrocyclopenta[c]pyrrol-4-amine]",0.98
2,"Cc1c(CN[C@H]2CC[C@@H]3CN(c4cccc(C(F)(F)F)n4)C[C@@H]32)[nH]c2ccc(F)cc12 [Example 667, (3aR,4S,6aS)-N-[(5-fluoro-3-methyl-1H-indol-2-yl)methyl]-2-[6-(trifluoromethyl)pyridin-2-yl]octahydrocyclopenta[c]pyrrol-4-amine]",1.49
3,"FC(F)(F)c1cccc(N2C[C@H]3CC[C@H](NCc4nc5ccccc5[nH]4)[C@H]3C2)n1 [Example 683, (3aR,4S,6aS)-N-(1H-benzimidazol-2-ylmethyl)-2-[6-(trifluoromethyl)pyridin-2-yl]octahydrocyclopenta[c]pyrrol-4-amine]",0.71
4,"O=C(N[C@H]1CC[C@@H]2CN(c3cccc(C(F)(F)F)n3)C[C@@H]21)c1ccc(-c2cccs2)o1 [Example 571, 5-(2-thienyl)-N-{(3aR,4S,6aS)-2-[6-(trifluoromethyl)pyridin-2-yl]octahydrocyclopenta[c]pyrrol-4-yl}-2-furamide]",1.11
5,"O=S(=O)(N[C@H]1CC[C@@H]2CN(c3cccc(C(F)(F)F)n3)C[C@@H]21)c1ccc(F)cc1 [Example 705, 4-fluoro-N-{(3aR,4S,6aS)-2-[6-(trifluoromethyl)pyridin-2-yl]octahydrocyclopenta[c]pyrrol-4-yl}benzenesulfonamide]",3.82
6,"O=C(N[C@H]1CC[C@H]2CNC[C@H]21)C(C1CCCCC1)C1CCCCC1 [Example 53, 2,2-dicyclohexyl-N-[(3aS,4S,6aR)-octahydrocyclopenta[c]pyrrol-4-yl]acetamide]",8.54
7,"Fc1ccc2c(CN[C@H]3CC[C@@H]4CN(c5cccc(C(F)(F)F)n5)C[C@@H]43)c[nH]c2c1 [Example 686, (3aR,4S,6aS)-N-[(6-fluoro-1H-indol-3-yl)methyl]-2-[6-(trifluoromethyl)pyridin-2-yl]octahydrocyclopenta[c]pyrrol-4-amine]",0.88
8,"CN[C@@H](CC(C)C)C(=O)N[C@H]1CC[C@@H]2CN(c3ccc(F)cc3)C[C@@H]21 [Example 620, N-[(3aR,4S,6aS)-2-(4-fluorophenyl)octahydrocyclopenta[c]pyrrol-4-yl]-N^2-methyl-L-leucinamide]",5.31
9,"CN[C@@H](CC(C)C)C(=O)N[C@H]1CC[C@@H]2CN(c3cccc(C(F)(F)F)n3)C[C@@H]21 [Example 590, N^2-methyl-N-{(3aR,4S,6aS)-2-[6-(trifluoromethyl)pyridin-2-yl]octahydrocyclopenta[c]pyrrol-4-yl}-L-leucinamide]",0.45
10,"CN[C@@H](CC(C)C)C(=O)N[C@H]1CC[C@@H]2CN(c3cncc(C(F)(F)F)c3)C[C@@H]21 [Example 736, N^2-methyl-N-{(3aR,4S,6aS)-2-[5-(trifluoromethyl)pyridin-3-yl]octahydrocyclopenta[c]pyrrol-4-yl}-L-leucinamide]",3.34
11,"O=C(Nc1ccc(F)cc1)N[C@H]1CC[C@@H]2CN(c3cccc(C(F)(F)F)n3)C[C@@H]21 [Example 709, 1-(4-fluorophenyl)-3-{(3aR,4S,6aS)-2-[6-(trifluoromethyl)pyridin-2-yl]octahydrocyclopenta[c]pyrrol-4-yl}urea]",6.18
12,"CC(C)CC(=O)N[C@@H]1CC[C@H]2CN(Cc3ccccc3)C[C@H]21 [Example 236, N-[(3aS,4R,6aR)-2-benzyloctahydrocyclopenta[c]pyrrol-4-yl]-3-methylbutanamide]",> 30
13,"CC(C)(C)[C@H](N)C(=O)N[C@H]1CC[C@@H]2CN(Cc3ccccc3)C[C@@H]21 [Example 357, N^1-[(3aR,4S,6aS)-2-benzyloctahydrocyclopenta[c]pyrrol-4-yl]-3-methyl-L-valinamide]",> 30
14,"CN[C@@H](CC(C)C)C(=O)N[C@H]1CC[C@@H]2CN(c3ccccc3Cl)C[C@@H]21 [Example 634, N-[(3aR,4S,6aS)-2-(2-chlorophenyl)octahydrocyclopenta[c]pyrrol-4-yl]-N^2-methyl-L-leucinamide]",2.39
15,"FC(F)(F)c1cccc(N2C[C@H]3CC[C@H](NCc4c[nH]nn4)[C@H]3C2)n1 [Example 694, (3aR,4S,6aS)-N-(1H-1,2,3-triazol-4-ylmethyl)-2-[6-(trifluoromethyl)pyridin-2-yl]octahydrocyclopenta[c]pyrrol-4-amine]",4
16,"O=C(N[C@H]1CC[C@H]2CN(Cc3ccccc3)C[C@H]21)C1(c2ccccc2)CCCCC1 (relative stereo) [Example 9, N-[(3aS*,4S*,6aR*)-2-benzyloctahydrocyclopenta[c]pyrrol-4-yl]-1-phenylcyclohexanecarboxamide]",1.04
17,"CC(C)C[C@@H](C(=O)N[C@@H]1CC[C@H]2CN(S(=O)(=O)C3CC3)C[C@H]21)N1CCCC1 [Example 347, (2S)-N-[(3aS,4R,6aR)-2-(cyclopropylsulfonyl)octahydrocyclopenta[c]pyrrol-4-yl]-4-methyl-2-pyrrolidin-1-ylpentanamide]",> 5.2
18,"COc1ccc(N2C[C@H]3CC[C@H](NC(=O)[C@@H]4C[C@@H](F)CN4)[C@H]3C2)cc1 [Example 653, (4R)-4-fluoro-N-[(3aR,4S,6aS)-2-(4-methoxyphenyl)octahydrocyclopenta[c]pyrrol-4-yl]-L-prolinamide]",> 30
19,"CS(=O)(=O)N1CCCC[C@H]1C(=O)N[C@@H]1CC[C@H]2CN(Cc3ccccc3)C[C@H]21 [Example 514, (2S)-N-[(3aS,4R,6aR)-2-benzyloctahydrocyclopenta[c]pyrrol-4-yl]-1-(methylsulfonyl)piperidine-2-carboxamide]",> 22.5
20,"CC(C)(C)C[C@H](N)C(=O)N[C@H]1CC[C@@H]2CN(C(=O)[C@@H](N)CC(C)(C)C)C[C@@H]21 [Example 464, 4-methyl-N^1-[(3aR,4S,6aS)-2-(4-methyl-L-leucyl)octahydrocyclopenta[c]pyrrol-4-yl]-L-leucinamide]",> 30
21,"CN[C@@H](CC(C)C)C(=O)N[C@H]1CC[C@@H]2CN(c3ncc(C(F)(F)F)cc3Br)C[C@@H]21 [Example 766, N-{(3aR,4S,6aS)-2-[3-bromo-5-(trifluoromethyl)pyridin-2-yl]octahydrocyclopenta[c]pyrrol-4-yl}-N^2-methyl-L-leucinamide]",0.63
22,"CN[C@@H](CC(C)C)C(=O)N[C@H]1CC[C@@H]2CN(c3ccc(F)c(Cl)c3)C[C@@H]21 [Example 773, N-[(3aR,4S,6aS)-2-(3-chloro-4-fluorophenyl)octahydrocyclopenta[c]pyrrol-4-yl]-N^2-methyl-L-leucinamide]",1.79
23,"O=C(N[C@H]1CC[C@@H]2CN(c3ncccc3C(F)(F)F)C[C@@H]21)[C@@H]1C[C@@H](F)CN1 [Example 660, (4R)-4-fluoro-N-{(3aR,4S,6aS)-2-[3-(trifluoromethyl)pyridin-2-yl]octahydrocyclopenta[c]pyrrol-4-yl}-L-prolinamide]",7.03
24,"Cc1c(CN[C@H]2CC[C@@H]3CN(c4cccc(C(F)(F)F)n4)C[C@@H]32)[nH]c2ccccc12 [Example 664, (3aR,4S,6aS)-N-[(3-methyl-1H-indol-2-yl)methyl]-2-[6-(trifluoromethyl)pyridin-2-yl]octahydrocyclopenta[c]pyrrol-4-amine]",1.69
25,"CN[C@@H](CC(C)C)C(=O)N[C@H]1CC[C@@H]2CN(c3cccc(C#N)c3)C[C@@H]21 [Example 646, N-[(3aR,4S,6aS)-2-(3-cyanophenyl)octahydrocyclopenta[c]pyrrol-4-yl]-N^2-methyl-L-leucinamide]",2.16
26,"CC(C)C(C(=O)N[C@H]1CC[C@H]2CN(Cc3cccc(C(F)(F)F)c3)C[C@H]21)c1ccccc1 (relative stereo) [Example 122, 3-methyl-2-phenyl-N-{(3aS*,4S*,6aR*)-2-[3-(trifluoromethyl)benzyl]octahydrocyclopenta[c]pyrrol-4-yl}butanamide]",0.36
27,"CC(C)(C)NC(=O)N[C@H]1CC[C@@H]2CN(c3cccc(C(F)(F)F)n3)C[C@@H]21 [Example 711, 1-tert-butyl-3-{(3aR,4S,6aS)-2-[6-(trifluoromethyl)pyridin-2-yl]octahydrocyclopenta[c]pyrrol-4-yl}urea]",1.38

# Same assay, conditions: read-out: IC50 (μM) or percent inhibition (* indicates 3 minute incubation, otherwise 60 minute); IC50; 60 minute pre-incubation with compound; IMR32 cells, 80 mM KCl depolarization
row,Structure (SMILES),IC50 [µM]
1,"O=S(=O)(c1cccc(C(F)(F)F)c1)N1C[C@H]2CC[C@H](NC(c3ccccc3)c3ccccc3)[C@H]2C1 [Example 468, (3aR,4S,6aS)-N-benzhydryl-2-{[3-(trifluoromethyl)phenyl]sulfonyl}octahydrocyclopenta[c]pyrrol-4-amine]",2.26
2,"O=C(N[C@@H]1CC[C@H]2CN(Cc3ccccc3)C[C@H]21)C(c1ccccc1)C1CCCC1 (stereo partly drawn) [Example 17, N-[(3aS,4R,6aR)-2-benzyloctahydrocyclopenta[c]pyrrol-4-yl]-2-cyclopentyl-2-phenylacetamide]",1.57
3,"CC(C)(C)OC(=O)N[C@H](C(=O)N[C@H]1CC[C@@H]2CN(Cc3ccccc3)C[C@@H]21)C(C)(C)C [Example 225, tert-butyl(S)-1-((3aR,4S,6aS)-2-benzyloctahydrocyclopenta[c]pyrrol-4-ylamino)-3,3-dimethyl-1-oxobutan-2-ylcarbamate]",9.36
4,"CC(C)C(C(=O)N[C@H]1CC[C@@H]2CN(CCCCCC(c3ccc(F)cc3)c3ccc(F)cc3)C[C@@H]21)c1ccccc1 (stereo partly drawn) [Example 107, N-{(3aR,4S,6aS)-2-[6,6-bis(4-fluorophenyl)hexyl]octahydrocyclopenta[c]pyrrol-4-yl}-3-methyl-2-phenylbutanamide]",1.14
5,"CCC[C@H](NCC(C)(C)C)C(=O)N[C@@H]1CC[C@H]2CN(Cc3ccccc3)C[C@H]21 [Example 246, N^1-[(3aS,4R,6aR)-2-benzyloctahydrocyclopenta[c]pyrrol-4-yl]-N^2-neopentyl-L-norvalinamide]",8.38
